Test results taken from patent US10208078B1 (SHAANXI UNIVERSITY OF SCIENCE AND TECHNOLOGY, priority 2018, dated 2019).

Assay: DPPH radical scavenging activity assay
Assay type: biochemical
Parameters: Scavenging activity (%): unit of the concentration uncertain
Conditions: for Scavenging activity (%): 0.2 mmol/L DPPH, 30 minutes room temperature in dark, absorbance at 517 nm
Text: 2,2-Diphenyl-1-picryl hydrazyl (DPPH) is an organic compound composed of a stable organic radical. In the DPPH molecule, due to the presence of multiple electron-withdrawing —NO2 and large π bonds of the benzene ring, nitrogen free radical is stabilized. Its methanol solution is purple and has a maximum absorption peak at 517 nm. After the addition of an antioxidant, DPPH captures an electron to be paired with the free electron, and the purple fades and turns into a yellow substance. The absorption at 517 nm disappears, and the degree of fading is quantitatively related to the number of electrons it captures. Based on this principle, a spectrophotometer is used to detect the change of the absorbance of the DPPH radical and the sample solution, and the ability of the sample to provide hydrogen atoms and scavenge free radicals can be measured.
Preparation of DPPH solution: measuring exact amount of 2,2-diphenyl-1-picryl hydrazyl (DPPH) and dissolving in methanol to prepare a 0.2 mmol/L DPPH solution, stored at 0° C. in dark.
Measuring the scavenging activity of the sample solutions:
2 mL of the sample solutions at each concentration gradient was taken, 2 mL 0.2 mmol/L DPPH solution was added, the mixture was mixed and reacted at room temperature in dark for 30 minutes, and methanol was then added to adjust final volume. The absorbance Ai was measured at 517 nm. 2 mL control solution and 2 mL methanol were mixed, and the absorbance Aj was measured. 2 mL DPPH solution and 2 mL methanol were mixed, and the absorbance A0 was measured. The scavenging activity of the sample solution and control solutions is calculated according to the following calculation formula. Scavenging activity (%)=100×[1−(Ai−Aj)/A0]
In FIG. 1, the X axis represents the concentrations (PPM) of the sample and control solutions, and the Y axis represents the scavenging activity.

[1] = concentration 6.89 (unit uncertain)
[2] = concentration 68.9 (unit uncertain)
[3] = concentration 172 (unit uncertain)
[4] = concentration 689 (unit uncertain)
[5] = concentration 1724 (unit uncertain)
[6] = concentration 6890 (unit uncertain)
[7] = concentration 8620 (unit uncertain)

Structure (SMILES) | Scavenging activity (%) [1] | Scavenging activity (%) [2] | Scavenging activity (%) [3] | Scavenging activity (%) [4] | Scavenging activity (%) [5] | Scavenging activity (%) [6] | Scavenging activity (%) [7] | free radical clearance rate (achieved at a lower concentration than aesculin, thiodipropionic acid and their mixture)
O=C1O[C@H]([C@@H](O)CO)C(O)=C1O [Vitamin C, vitamin C] | 53.40% | 96.15% | 96.28% | 96.79% | 96.79% | 97.18% | 97.43% | 
O=C(O)CCSCCC(=O)O [Thiodipropionic acid, 3,3′-thiodipropionic acid] | 1.13% | 3.84% | 4.64% | 5.20% | 5.43% | 6.33% | 6.57% | 
O=C(CCSCCC(=O)OCC1OC(Oc2cc3ccc(=O)oc3cc2O)C(O)C(O)C1O)OCC1OC(Oc2cc3ccc(=O)oc3cc2O)C(O)C(O)C1O (stereo not shown) [Aesculin thiodipropionic acid ester, aesculin thiodipropionic acid ester] | 7.60% | 37.08% | 58.91% | 77.78% | 90.95% | 94.83% | 96.12% | more than 90%
